Patent US4971965A, “Antibiotics TAN-1057” (Takeda Chemical Industries, Ltd., priority 1988, dated 1990)
≈ marks a conversion by molar mass, not a printed value. Where a name gives a salt, the structure may show the parent alone.

Key:
[1] = tested on: Escherichia coli NIHJ JC 2; format: cell-based; details: NIHJJC2, agar dilution, DY medium, pH unadjusted, approx. 10^6 CFU/ml, read-out: Minimum Inhibitory Conc. (MIC)
Experimental: (§1) (Note 1) Measurement was conducted by employing a medium consisting of DY
(§2) medium [Bacto Antibiotic Medium 3 (Difco Laboratories, USA)(17.5 g), Bact
(§3) yeast extract(Difco Laboratories, USA)(5.0 g) and distilled water(pH
(§4) unadjusted)(1000 ml)], using approximately 10^6 colony forming unit/m
(§5) of inoculum, by means of the agar dilution method.

[2] = tested on: Klebsiella pnemoniae IFO 3317; format: cell-based; details: IFO3317, agar dilution, DY medium, pH unadjusted, approx. 10^6 CFU/ml, read-out: Minimum Inhibitory Conc. (MIC)
Experimental: as §1, §2, §3, §4, §5

[3] = tested on: Escherichia coli LD-2; format: cell-based; details: LD2, agar dilution, DY medium, pH unadjusted, approx. 10^6 CFU/ml, read-out: Minimum Inhibitory Conc. (MIC)
Experimental: as §1, §2, §3, §4, §5

[4] = tested on: Salmonella typhimurium IFO 12529; format: cell-based; details: Salmonella enterica; agar dilution; DY medium, pH unadjusted; approx. 10^6 CFU/ml; read-out: Minimum Inhibitory Conc. (MIC)
Experimental: as §1, §2, §3, §4, §5

[5] = tested on: Micrococcus luteus IFO 12708; format: cell-based; details: IFO12708, agar dilution, DY medium, pH unadjusted, approx. 10^6 CFU/ml, read-out: Minimum Inhibitory Conc. (MIC)
Experimental: as §1, §2, §3, §4, §5

[6] = tested on: Proteus vulgaris IFO 3988; format: cell-based; details: IFO3988, agar dilution, DY medium, pH unadjusted, approx. 10^6 CFU/ml, read-out: Minimum Inhibitory Conc. (MIC)
Experimental: as §1, §2, §3, §4, §5

[7] = tested on: Pseudomonas aeruginosa IFO 3080; format: cell-based; details: IFO3080, agar dilution, DY medium, pH unadjusted, approx. 10^6 CFU/ml, read-out: Minimum Inhibitory Conc. (MIC)
Experimental: as §1, §2, §3, §4, §5

[8] = tested on: Streptococcus faecalis IFO 3989; format: cell-based; details: Enterococcus faecalis, IFO3989; agar dilution; DY medium, pH unadjusted; approx. 10^6 CFU/ml; read-out: Minimum Inhibitory Conc. (MIC)
Experimental: as §1, §2, §3, §4, §5

[9] = tested on: Acinetobacter calcoaceticus IFO 12552; format: cell-based; details: IFO12552, agar dilution, DY medium, pH unadjusted, approx. 10^6 CFU/ml, read-out: Minimum Inhibitory Conc. (MIC)
Experimental: as §1, §2, §3, §4, §5

[10] = tested on: Bacillus cereus FDA 5; format: cell-based; details: FDA5, agar dilution, DY medium, pH unadjusted, approx. 10^6 CFU/ml, read-out: Minimum Inhibitory Conc. (MIC)
Experimental: as §1, §2, §3, §4, §5

[11] = tested on: Aeromonas caviae NCW; format: cell-based; details: agar dilution, DY medium, pH unadjusted, approx. 10^6 CFU/ml, read-out: Minimum Inhibitory Conc. (MIC)
Experimental: as §1, §2, §3, §4, §5

[12] = tested on: Bacillus megaterium IFO 12108; format: cell-based; details: Priestia megaterium, IFO12108; agar dilution; DY medium, pH unadjusted; approx. 10^6 CFU/ml; read-out: Minimum Inhibitory Conc. (MIC)
Experimental: as §1, §2, §3, §4, §5

[13] = tested on: Bacillus subtilis NIHJ PCI 219; format: cell-based; details: agar dilution, DY medium, pH unadjusted, approx. 10^6 CFU/ml, read-out: Minimum Inhibitory Conc. (MIC)
Experimental: as §1, §2, §3, §4, §5

[14] = tested on: Staphylococcus epidermidis IFO 3762; format: cell-based; details: IFO3762, agar dilution, DY medium, pH unadjusted, approx. 10^6 CFU/ml, read-out: Minimum Inhibitory Conc. (MIC)
Experimental: as §1, §2, §3, §4, §5

[15] = tested on: Staphylococcus aureus FDA 209P; format: cell-based; details: FDA209P, agar dilution, DY medium, pH unadjusted, approx. 10^6 CFU/ml, read-out: Minimum Inhibitory Conc. (MIC)
Experimental: as §1, §2, §3, §4, §5

[16] = Conversion in aqueous solution; format: physicochemical; details: for conversion of TAN-1057C and D: especially aqueous alkaline solution, by HPLC
Text: For example, in case that the mixture of TAN-1057A and B is isolated as crystals of the sulfate, the ratio of TAN-1057A and B is about 6 to 8:4 to 2.
The term "Antibiotics TAN-1057" in the present specification includes also a mixture which contains TAN-1057A, B, C and D in an optional combination and an optional ratio thereof.

[17] = Solubility; format: physicochemical
[18] = Acidity or basicity; format: physicochemical

Compound	MIC [1] [µg/mL]	MIC [2] [µg/mL]	MIC [3] [µg/mL]	MIC [4] [µg/mL]	MIC [5] [µg/mL]	MIC [6] [µg/mL]	MIC [7] [µg/mL]	MIC [8] [µg/mL]	MIC [9] [µg/mL]	MIC [10] [µg/mL]	MIC [11] [µg/mL]	MIC [12] [µg/mL]	MIC [13] [µg/mL]	MIC [14] [µg/mL]	MIC [15] [µg/mL]	conversion of TAN-1057C and D [16]	Solubility ([17]; acetone)	Solubility ([17]; diethyl ether)	Solubility ([17]; dimethylsulfoxide)	Solubility ([17]; ethyl acetate)	other results
CN1C(=O)C[C@H](CCCNC(=N)N)NC(=O)[C@@H]1CNC(=N)NC(N)=O [TAN-1057D]	> 100	> 100	12.5 (≈ 35.2 µM)	> 100	3.13 (≈ 8.81 µM)	> 100	> 100	12.5 (≈ 35.2 µM)	25 (≈ 70.3 µM)	25 (≈ 70.3 µM)	6.25 (≈ 17.6 µM)	12.5 (≈ 35.2 µM)	12.5 (≈ 35.2 µM)	0.78 (≈ 2.19 µM)	6.25 (≈ 17.6 µM)	converted into TAN-1057B and TAN-1057A, respectively	–	–	–	–	–
CN1C(=O)C[C@H](CCCNC(=N)N)NC(=O)[C@H]1CNC(=N)NC(N)=O [TAN-1057C]	> 100	> 100	50 (≈ 141 µM)	> 100	12.5 (≈ 35.2 µM)	> 100	> 100	50 (≈ 141 µM)	> 100	> 100	50 (≈ 141 µM)	> 100	> 100	6.25 (≈ 17.6 µM)	50 (≈ 141 µM)	converted into TAN-1057B	–	–	–	–	–
CN(C(=O)C[C@@H](N)CCCNC(=N)N)[C@@H]1CNC(NC(N)=O)=NC1=O [TAN-1057B]	> 100	> 100	25 (≈ 70.3 µM)	> 100	12.5 (≈ 35.2 µM)	> 100	> 100	50 (≈ 141 µM)	100 (≈ 281 µM)	100 (≈ 281 µM)	25 (≈ 70.3 µM)	50 (≈ 141 µM)	50 (≈ 141 µM)	3.13 (≈ 8.81 µM)	25 (≈ 70.3 µM)	–	–	–	–	–	conversion of TAN-1057A and B into each other ([16]; room temperature): converted easily each other
CN1C(=O)C[C@H](CCCNC(=N)N)NC(=O)[C@H]1CNC(=N)NC(N)=O [TAN-1057C dihydrochloride]	–	–	–	–	–	–	–	–	–	–	–	–	–	–	–	–	Sparingly soluble	Sparingly soluble	Soluble	Sparingly soluble	Solubility ([17]; methanol): Soluble; Solubility ([17]; water): Readily soluble; Acidity or basicity [18]: neutral
CN(C(=O)C[C@@H](N)CCCNC(=N)N)[C@H]1CNC(NC(N)=O)=NC1=O [TAN-1057A trihydrochloride]	–	–	–	–	–	–	–	–	–	–	–	–	–	–	–	–	Sparingly soluble	Sparingly soluble	Soluble	Sparingly soluble	Solubility ([17]; methanol): Soluble; Solubility ([17]; water): Readily soluble; Acidity or basicity [18]: neutral
